For one test, the system named is GIST430 cell line. The test is described as follows: Combination dose-matrix cell viability (CellTiter Glo, Loewe model). The class given is cell-based. Particulars: NEG085-MCC-DM1 in combination with the compound, 120 h. On the procedure:
(§1) Relative inhibition of cell viability was calculated for every dose combination. […] Excess inhibition compared to additivity can be plotted as a full dose-matrix chart to visualize the drug concentrations where synergies occur. Synergistic combinations produced regions of excess inhibition within the dose-matrix. […] “Additivity” was found when the combination generated the same inhibition of cell viability response when compared to the response with the single agent by itself “Synergy” was indicated when the inhibition of cell viability was greater than the response of the single agent compared with itself. Alternatively, “Additivity” was indicated with a Loewe score of less than 5, and “Synergy” was indicated by a Loewe score of greater than 5.
(§2) Cell viability was determined by measuring cellular ATP content using the CellTiter Glo luminescence assay (Promega, Madison Wis.). One day before drug addition, 250-500 GIST cells from 2 different cell lines were plated into 384-well plates (Greiner, Monroe, N.C.) in 20 μl growth media.

A further test relates to GIST882 cell line. The description is as above. The class given is cell-based. Particulars: NEG085-MCC-DM1 in combination with the compound, 120 h. On the procedure: as §1, §2

The structures appear in SMILES notation.

As for `CO[C@H]1C[C@@H]2CC[C@@H](C)[C@@](O)(O2)C(=O)C(=O)N2CCCC[C@H]2C(=O)O[C@H]([C@H](C)C[C@@H]2CC[C@@H](OCCO)[C@H](OC)C2)CC(=O)[C@H](C)/C=C(\C)[C@@H](O)[C@@H](OC)C(=O)[C@H](C)C[C@H](C)/C=C/C=C/C=C/1C` [Afinitor ®, Everolimus], the GIST430 cell line result in the test on GIST430 cell line is listed as “Synergy (“Synergy” was indicated by a Loewe score of greater than 5)”. In addition, the GIST882 cell line entry in the test on GIST882 cell line is recorded as “Synergy (“Synergy” was indicated by a Loewe score of greater than 5)”.

With `Cn1c(=O)n(-c2ccc(C(C)(C)C#N)cc2)c2c3cc(-c4cnc5ccccc5c4)ccc3ncc21` [NVP-BEZ235, 2-Methyl-2-[4-[3-methyl-2-oxo-8-(quinolin-3-yl)-2,3-dihydroimidazo[4,5-c]quinolin-1-yl]phenyl]propionitrile], in the test with GIST430 cell line, the GIST430 cell line result is “Additivity (“Additivity” was indicated with a Loewe score of less than 5)”. The GIST882 cell line result with GIST882 cell line is given as “Synergy (“Synergy” was indicated by a Loewe score of greater than 5)”.

As for `Nc1cc(C(F)(F)F)c(-c2cc(N3CCOCC3)nc(N3CCOCC3)n2)cn1` [NVP-BKM120, 4-(trifluoromethyl)-5-(2,6-dimorpholinopyrimidin-4-yl)pyridin-2-amine], the GIST430 cell line result with GIST430 cell line is “Additivity (“Additivity” was indicated with a Loewe score of less than 5)”. In addition, the GIST882 cell line result with GIST882 cell line was “Synergy (“Synergy” was indicated by a Loewe score of greater than 5)”.

With `C[C@@H]1CN(c2ccc(Nc3ncc4ccn(-c5cc(F)c(CN6CCOCC6)c(F)c5)c4n3)cn2)C[C@H](C)N1` [NVP-BVB808], the GIST430 cell line result in the test on GIST430 cell line was “Additivity (“Additivity” was indicated with a Loewe score of less than 5)”. In the test on GIST882 cell line, the GIST882 cell line result is recorded as “Additivity (“Additivity” was indicated with a Loewe score of less than 5)”.

As to `Cc1nc(NC(=O)N2CCC[C@H]2C(N)=O)sc1-c1ccnc(C(C)(C)C(F)(F)F)c1` [NVP-BYL719], in the test on GIST430 cell line, the GIST430 cell line result is on record as “Synergy (“Synergy” was indicated by a Loewe score of greater than 5)”. The GIST882 cell line entry in the test with GIST882 cell line is “Synergy (“Synergy” was indicated by a Loewe score of greater than 5)”.

For `COc1ccc(-c2ccc3c(N4CCOC[C@@H]4C)nc(N4CCOC[C@@H]4C)nc3n2)cc1CO` [NVP-CCG168], in the test on GIST430 cell line, the GIST430 cell line entry was “Additivity (“Additivity” was indicated with a Loewe score of less than 5)”. Besides, the GIST882 cell line entry in the test on GIST882 cell line is recorded as “Additivity (“Additivity” was indicated with a Loewe score of less than 5)”.

Turning to `COc1cccc(-c2cc(F)ccc2[C@H]2Cc3nc(N)nc(C)c3C(=O)N2)n1` [NVP-HSP990], the GIST430 cell line entry in the test on GIST430 cell line is “Additivity (“Additivity” was indicated with a Loewe score of less than 5)”. The GIST882 cell line entry in the test with GIST882 cell line is reported as “Additivity (“Additivity” was indicated with a Loewe score of less than 5)”.

As for `CN[C@@H](C)C(=O)N[C@H](C(=O)N1CCC[C@H]1c1nc(C(=O)c2ccc(F)cc2)cs1)C1CCCCC1` [NVP-LCL161], the GIST430 cell line entry in the test on GIST430 cell line is “Synergy (“Synergy” was indicated by a Loewe score of greater than 5)”. Further, the GIST882 cell line result in the test with GIST882 cell line is listed as “Synergy (“Synergy” was indicated by a Loewe score of greater than 5)”.

Regarding `CCN(CC)CCNC(=O)c1c(C)[nH]c(/C=C2\C(=O)Nc3ccc(F)cc32)c1C` [Sutent ®, Sunitinib], the GIST430 cell line result in the test on GIST430 cell line is given as “Additivity (“Additivity” was indicated with a Loewe score of less than 5)”. Besides, the GIST882 cell line result with GIST882 cell line is listed as “Additivity (“Additivity” was indicated with a Loewe score of less than 5)”.

These data come from patent US20150320880A1, “ANTIBODY DRUG CONJUGATES” (NOVARTIS AG, priority 2013, published 2015).
